One may read the IC50 as the midpoint of a concentration-inhibition curve.

The values that follow come from ChEMBL document CHEMBL4257493, “Discovery of 7-hydroxyaporphines as conformationally restricted ligands for beta-1 and beta-2 adrenergic receptors” (Medchemcomm, 2018).

This test addresses Beta-2 adrenergic receptor (Homo sapiens, UniProt P07550). Put plainly: Displacement of [3H]-CGP-12177 from human beta2-adrenergic receptor. For orientation: Displacement assays read how much labelled ligand stays bound in the presence of the test substance.

Sequence of Beta-2 adrenergic receptor (P07550 whole entry): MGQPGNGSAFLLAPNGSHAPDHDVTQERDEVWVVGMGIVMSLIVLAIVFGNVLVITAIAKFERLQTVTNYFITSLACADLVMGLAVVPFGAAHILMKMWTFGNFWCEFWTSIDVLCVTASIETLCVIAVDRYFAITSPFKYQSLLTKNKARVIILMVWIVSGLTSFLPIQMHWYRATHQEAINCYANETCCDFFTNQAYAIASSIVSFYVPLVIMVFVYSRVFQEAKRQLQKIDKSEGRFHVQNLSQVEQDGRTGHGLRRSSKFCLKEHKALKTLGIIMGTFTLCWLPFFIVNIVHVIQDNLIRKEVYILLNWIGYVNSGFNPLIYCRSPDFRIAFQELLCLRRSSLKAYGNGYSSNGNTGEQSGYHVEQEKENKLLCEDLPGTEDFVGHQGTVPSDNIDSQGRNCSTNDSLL

`COc1cc2c(cc1OC)[C@H]([C@H](O)c1ccccc1Cl)NCC2`: the IC50 was over 10 µM.
The result for `COc1cc2c(cc1OC)[C@H]([C@H](O)c1ccccc1)NCC2` reads over 10 µM; that for `COc1ccc(CCNC[C@H](O)c2ccccc2)cc1OC`, 8.4 µM.
The result for `COc1cc2c3c(c1OC)-c1ccccc1[C@@H](O)[C@]3(C)NCC2` (relative stereo) reads 0.02 µM; that for `COc1cc2c3c(c1OC)-c1ccccc1[C@@H](O)[C@H]3NCC2`, 0.21 µM.
Under `COc1cc2c3c(c1OC)-c1ccccc1[C@H](O)[C@H]3NCC2` stands 1.6 µM.
